According to publication PMC10539800, “Small-molecule inhibitors of the PDZ domain of Dishevelled proteins interrupt Wnt signalling” (Magnetic resonance, 2021):

Experiments:
Dvl-3 PDZ [1] = target: T1, Dvl-3 PDZ (Homo sapiens, UniProt Q92997); test: NMR 1H-15N HSQC chemical shift perturbation; type: binding; conditions: Dvl-3 PDZ; average of the three strongest shifting cross peaks
T1 construct: spectra of Dvl-3 PDZ in the absence and presence of the compound; His-tag (cleaved yes); made in house
T1 sequence (Q92997 243-336): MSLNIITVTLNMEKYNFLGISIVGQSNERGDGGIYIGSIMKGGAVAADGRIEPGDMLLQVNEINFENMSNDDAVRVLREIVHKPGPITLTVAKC
Procedure: The results of virtual screening were checked experimentally by comparing 2D ^1H-^15N HSQC (heteronuclear single quantum correlation) spectra of Dvl-3 PDZ in the absence and presence of the compound to elucidate ligand-induced changes of chemical shifts. Chemical shift perturbation differences ( Δ CSP, representing the average of the three strongest shifting cross peaks according to Eq. 1) were evaluated in cases where the residues responding strongest are inside the area defined by Fig. 1a. […] In most cases, the signals of residues S263, V287, and R320 (Fig. 1a) within the conserved binding site were most strongly perturbed (Fig. S2). With the Δ CSP of 0.12 ppm, the isoleucine-derived compound 1 ((2,3-dihydrobenzo[b][1,4]dioxin-6-yl)sulfonyl)-L-isoleucine containing a sulfonamide moiety was detected initially as one of the best “hits” according to chemical shift changes. The sulfonamide is a well-known moiety in drug discovery (Mathvink et al., 1999; Wu et al., 1999; Sleight et al., 1998; O'Brien et al., 2000; Tellew et al., 2003).
Two-dimensional ^1H-^15N HSQC spectra were used to screen a library of 212 compounds designed by the company Enamine for PDZ domains. 50 µM of ^15N -labelled protein samples was prepared in a 20 mM sodium phosphate buffer, containing 50 mM sodium chloride, 0.02 % ( w/v ) NaN3 , at pH 7.4. Stock solutions of small molecules were prepared in DMSO-d6 at a concentration of 160 mM. A ^1H-^15N HSQC spectrum of Dvl PDZ was acquired at 300 K with 5 % DMSO-d6 in the absence of ligand as reference spectrum. Mixtures of 16 compounds were added to ^15N -labelled Dvl PDZ at eightfold molar excess each. The final concentration of DMSO-d6 in the protein–ligand solutions was 5 %. Spectra were acquired with eight scans and 256 points in the indirect dimension. […] The active compound was obtained through successive deconvolution. Experiments were recorded on a Bruker DRX600 spectrometer equipped with a triple-resonance cryoprobe. The preparation of samples was done automatically by a Tecan Genesis RSP 150 pipetting robot. Spectra were analysed using the programs TOPSPIN and SPARKY (Goddard and Kneller, 2003).
50 µM of ^15N -labelled protein samples was prepared in a 20 mM sodium phosphate buffer containing 50 mM sodium chloride, 0.02 % ( w/v ) NaN3 , at pH 7.4. Stock solutions of small molecules were prepared in DMSO-d6 at a concentration of 160 mM. A ^1H-^15N HSQC spectrum of Dvl PDZ was acquired at 300 K with 5 % DMSO-d6 in the absence of ligand as reference spectrum. Mixtures of 16 compounds were added to ^15N -labelled Dvl PDZ at eightfold molar excess each. The final concentration of DMSO-d6 in the protein–ligand solutions was 5 %. Spectra were acquired with eight scans and 256 points in the indirect dimension.
The active compound was obtained through successive deconvolution. Experiments were recorded on a Bruker DRX600 spectrometer equipped with a triple-resonance cryoprobe. The preparation of samples was done automatically by a Tecan Genesis RSP 150 pipetting robot. Spectra were analysed using the programs TOPSPIN and SPARKY.

Dvl-3 PDZ [2] = target: T1, Dvl-3 PDZ; test: Binding constant by NMR titration; conditions: by NMR; mean ± SD of at least six residues; read-out: K D Dvl-3 PDZ
From the text: (§1) K D is the equilibrium dissociation constant.

Dvl-3 PDZ [3] = test: Binding constant by NMR titration; design: species or system human; conditions: from NMR K D values
From the text: as §1

Dvl-1 PDZ [4] = target: T2, Dvl-1 PDZ (Homo sapiens, UniProt O14640, C338S/V250I); test: Binding constant by NMR titration; design: made in house; host or cells: E. coli BL21 (DE3); conditions: mean ± SD of at least six residues, read-out: K D Dvl-1 PDZ
T2 sequence (O14640 245-338 V250I/C338S): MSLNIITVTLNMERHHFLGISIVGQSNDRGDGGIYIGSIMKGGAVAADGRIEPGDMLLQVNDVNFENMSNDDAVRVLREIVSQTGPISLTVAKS
Procedure: Chemical shift perturbations were obtained by comparing the ^1H-^15N backbone resonances of protein alone to those of protein–ligand complex. […] 1 Δδ=[ΔδH]^2+[ΔδN5]^2/2 Here ΔδN and ΔδH are the amide nitrogen and amide proton chemical shift differences between the free and the bound states of the protein. In order to estimate binding constants, titration experiments monitored by NMR were done. A series of ^1H-^15N HSQC were recorded as a function of ligand concentration. Residues showing a continuous chemical shift change and for which the intensity remained strong were classified as being in fast exchange. […] [LT] is the total concentration of the compound, and [PT] is the total concentration of the protein. K D is the equilibrium dissociation constant. The K D values are reported as means ± standard deviations of at least six residues influenced upon binding of the ligand.

Dvl-1 PDZ [5] = target: Dvl-1 PDZ; design: method as in Kim et al., 2016; conditions: value from literature; ref Kim et al., 2016; read-out: K D Dvl-1 PDZ; cited from earlier work

SMILES: O=C(O)c1cc(F)ccc1NS(=O)(=O)c1ccc2c(c1)CCCC2 [Compound 5]
- Chemical shift perturbation ΔCSP (Dvl-3 PDZ [1]): > 0.2 ppm
- Kd (Dvl-3 PDZ [2]): 141 ± 14.1 µM
- discrimination between Dvl-3 PDZ and Dvl-1 PDZ (in words) (Dvl-3 PDZ [3]): did not distinguish
- Kd (Dvl-1 PDZ [4]): 160 ± 14.6 µM

SMILES: CCOC(=O)c1cc2cc(O)ccc2n1CC(=O)NCCN1CCCCC1 [Ky-02327, ethyl 5-hydroxy-1-(2-oxo-2-((2-(piperidin-1-yl)ethyl)amino)ethyl)-1H-indole-2-carboxylate]
- Kd (Dvl-1 PDZ [5]): 8.3 ± 0.8 µM
